Each block holds one compound with its values, some of them ahead of it.
Tests used:
[1] = test system: subcutaneous KB tumors; assay: Antitumor activity in KB tumor model; assay type: in vivo, mice; settings: for PR, complete responses or cure: 1 μmol/kg
Experimental: METHOD. Inhibition of Tumor Growth in Mice. Four to seven week-old mice (Balb/c or nu/nu strains) are purchased from Harlan Sprague Dawley, Inc. (Indianapolis, Ind.). […] For tumor cell inoculation, 1×10^6 M109 cells (a syngeneic lung carcinoma) in Balb/c strain, or 1×10^6 KB cells in nu/nu strain, in 100 μL are injected in the subcutis of the dorsal medial area (right axilla). Tumors are measured in two perpendicular directions every 2-3 days using a caliper, and their volumes are calculated as 0.5×L×W^2, where L=measurement of longest axis in mm and W=measurement of axis perpendicular to L in mm.
Dosing is initiated when the s.c. tumors have an average volume between 50-100 […] (t0), typically 8 days post tumor inoculation (PTI) for KB tumors, and 11 days PTI for M109 tumors. Test animals (5/group) are injected i.v., generally three times a week (TIW), for 3 weeks with varying doses, such as with 1 μmol/kg to 5 μmol/kg, of the conjugate or with an equivalent dose volume of PBS (control), unless otherwise indicated. Dosing solutions are prepared fresh each day in PBS and administered through the lateral tail vein of the mice.
Female Balb/c nu/nu mice were fed ad libitum with folate-deficient chow (Harlan diet #TD01013) for the duration of the experiment. KB tumor cells were inoculated subcutaneously at the right flank of each mouse. Mice were dosed after the tumors have reached a range of 107-152 mm^3 through the lateral tail vein under sterile conditions in a volume of 200 μL of phosphate-buffered saline (PBS).
Growth of each s.c. tumor was followed by measuring the tumor two times per week. Tumors were measured in two perpendicular directions using Vernier calipers, and their volumes were calculated as 0.5×L×W^2, where L=measurement of longest axis in mm and W=measurement of axis perpendicular to L in mm.

[2] = test system: KB cells; assay: In vitro activity in KB cells (3H-thymidine incorporation); assay type: cell-based, human; settings: 2 hr pulse at 37° C., chase up to 70 hr
Experimental: Cells were seeded in 24-well Falcon plates and allowed to form nearly confluent monolayers overnight. After one rinse with 1 mL of fresh FFRPMI/HIFCS, each well received 1 mL of medium containing increasing concentrations of test agent (3 wells per sample). Cells were pulsed with targeted agents for 2 hr at 37° C., rinsed 4 times with 0.5 mL of medium, and then chased in 1 mL of fresh medium up to 70 hr. Cells were treated with non-targeted agent ECO347 for a continuous 72 h. Spent medium was aspirated from all wells and replaced with fresh medium containing 5 μCi/mL ^3H-thymidine. After a further 2 hr 37° C. incubation, cells were washed 3 times with 0.5 mL of PBS and then treated with 0.5 mL of ice-cold 5% trichloroacetic acid per well. After 15 min, the trichloroacetic acid. was aspirated and the cell material solubilized by the addition of 0.5 mL of 0.25 N sodium hydroxide for 15 min. Four hundred and fifty microliters of each solubilized sample were transferred to scintillation vials containing 3 mL of Ecolume scintillation cocktail and then counted in a liquid scintillation counter. Final tabulated results were expressed as the percentage of ^3H-thymidine incorporation relative to untreated controls and IC50 values calculated using Graphpad Prism software.

[3] = 0.5 μmol/kg (EC1953 printed 0.5 mol/kg), TIW×2 wk, n=5
[4] = 1 μmol/kg (EC1953, EC 2014 printed 1 mol/kg), TIW×2 wk, n=5
[5] = mice having subcutaneous KB tumors

Compound: tubulysin B-monohydrazide [reference compound]
- PR, complete responses or cure ([1]; TIW×2 wk, n=5): none of the treatment groups showed a PR, complete responses, or cure

Compound: Nc1nc2[nH]c(CCCc3ccc(C(=O)N[C@@H](CCC(=O)O)C(=O)O)s3)cc2c(=O)[nH]1 [AG94, reference compound]
- PR, complete responses or cure ([1]; TIW×2 wk, n=5): none of the treatment groups showed a PR, complete responses, or cure
- IC50 ([2]; Homo sapiens): 2500 pM

Compound: CCCC(=O)OCN(C(=O)[C@@H](NC(=O)[C@H]1CCCCN1C)C(C)CC)[C@H](C[C@@H](OC(C)=O)c1nc(C(=O)N[C@@H](Cc2ccc(O)cc2)C[C@H](C)C(=O)NNC(=O)OCCSSCCC(=O)N[C@@H](CCC(=O)NC[C@H](O)[C@@H](O)[C@H](O)[C@H](O)CO)C(=O)N[C@@H](CCC(=O)O)C(=O)N[C@@H](CCC(=O)NC[C@H](O)[C@@H](O)[C@H](O)[C@H](O)CO)C(=O)N[C@@H](CCC(=O)O)C(=O)N[C@@H](CCC(=O)NC[C@H](O)[C@@H](O)[C@H](O)[C@H](O)CO)C(=O)N[C@@H](CSSCCOC(=O)CC[C@H](NC(=O)c2ccc(CCCc3cc4c(=O)[nH]c(N)nc4[nH]3)s2)C(=O)O)C(=O)O)cs1)C(C)C (some centres unmarked) [EC1953]
- CR (complete responses) of {PR, CR, cure} [1, 3]: 1
- PR (partial responses) of {PR, CR, cure} [1, 3]: 3
- cure of {PR, CR, cure} [1, 4]: 5
- cure of {PR, CR, cure} ([1]; 2 umol/kg, q5d×2 wk (independent dosing protocol)): 5
- cure of {PR, CR, cure} ([1]; 2 μmol/kg, single dose, n=5): 2
- cures, observation period extended for 90 days ([1]; 1 mol/kg (so in the source), TIW×2 wk): 5/5
- cures, observation period extended for 90 days ([1]; 2 mol/kg (so in the source), TIW×2 wk): 5/5
- cure of {PR, CR, cure} ([1]; 2 mol/kg (so in the source), TIW×2 wk, n=5): 5
- dose response [1, 5]: shows a dose response
- efficacy compared to comparator [1, 5]: more efficacious than the comparator folate-tubulysin conjugate
- IC50 [2]: 400 pM

- IC50 ([2]; Homo sapiens): 1200 pM
Compound: Nc1nc2[nH]c(CCCCCCCC(=O)N[C@@H](CCC(=O)O)C(=O)O)cc2c(=O)[nH]1 [AG147, reference compound]

Compound: CCCC(=O)OCN(C(=O)[C@@H](NC(=O)[C@H]1CCCCN1C)C(C)CC)[C@H](C[C@@H](OC(C)=O)c1nc(C(=O)N[C@@H](Cc2ccc(O)cc2)C[C@H](C)C(=O)NNC(=O)OCCSSCCC(=O)N[C@@H](CCC(=O)NC[C@H](O)[C@@H](O)[C@H](O)[C@H](O)CO)C(=O)N[C@@H](CCC(=O)O)C(=O)N[C@@H](CCC(=O)NC[C@H](O)[C@@H](O)[C@H](O)[C@H](O)CO)C(=O)N[C@@H](CCC(=O)O)C(=O)N[C@@H](CCC(=O)NC[C@H](O)[C@@H](O)[C@H](O)[C@H](O)CO)C(=O)N[C@@H](CSSCCOC(=O)CC[C@H](NC(=O)CCCCCCCc2cc3c(=O)[nH]c(N)nc3[nH]2)C(=O)O)C(=O)O)cs1)C(C)C (some centres unmarked) [EC2014]
- cure of {PR, CR, cure} [1, 4]: 5
- IC50 [2]: 340 pM
